In patent US3997506A (priority 1974, dated 1976):
Where two headings read alike, the source gives them in different places.

Key:
in vitro = format: cell-based, human; details: human, leucocytes, Culture II, read-out: % of dead cells
Procedure: (§1) The cytotoxicity has been investigated on human leucocytes by means of the viability test with Trypan blue.
(§2) a. In a first experimentation cultures of leucocytes of a voluntary […] were prepared and caused to undergo incubation with phytohemagglutinin (PHA) and with different concentrations of colchicine or of its derivative (C1 = 2.5 μg/ml of culture, C3 = 10 μg/ml, C5 = 30 μg/ml, C6 = 50 μg/ml). Leucocytes only containing PHA served as controls.
(§3) After 3, 42, 68 and 72 hours of incubation a sample of each culture was contacted by a drop of Trypan blue and laid on a slide of a microscope. Then took place the counting of the dead cells (those with assumed an […] colour) and of all the cells present on the slide in order to obtain the ratio of the number of dead cells to the total number of cells. The results expressed as a rate in per cent are shown in the accompanying table 8.
(§4) b. After the experimentation which has just been described, the study of cytotoxicity has been continued with two other samples of human leucocytes still by means of the viability test with Trypan blue.
(§5) C1 = 2.5 μg/ml of culture
(§6) C6 = 50 μg/ml of culture;
(§7) and for the carboxy-1-adamantane fraction to:
(§8) C3 = 4.5 μg/ml of culture
(§9) C6 = 22.5 μg/ml of culture.
(§10) Leucocytes only containing phytohemagglutinin and others containing phytohemagglutinin and 50 μl of methanol served as controls.
(§11) The percentage of dead cells was determined after different numbers of hours of incubation.

human leucocytes [1] = experiment: in vitro; format: cell-based; details: Cultures I and II
Procedure: as §1, §2, §3, §4, §5, §6, §7, §8, §9, §10, §11

human leucocytes [2] = details: Table 11; for Count of leucocytes after 72 hours: Culture II
[3] = carboxy-1-adamantane C3 = 4.5 μg/ml
[4] = carboxy-1-adamantane C6 = 22.5 μg/ml

O=C(O)C12CC3CC(CC(C3)C1)C2 [carboxy-1-adamantane]
cytotoxicity at 23 h (in vitro; [3]): 18%
cytotoxicity at 23 h (in vitro; [4]): 14%
cytotoxicity at 46 h (in vitro; [3]): 12%
cytotoxicity at 46 h (in vitro; [4]): 10%
cytotoxicity at 72 h (in vitro; [3]): 25%
cytotoxicity at 72 h (in vitro; [4]): 25%
cytotoxicity, cultures I and II (in words) (human leucocytes [1]): no effect until 46 hours of incubation
Count of leucocytes after 72 hours (human leucocytes [2]; [3]): 215,000
Count of leucocytes after 72 hours (human leucocytes [2]; [4]): 230,000
number of leucocytes in absence or presence of substance (in words) (human leucocytes [2]; very approximative): remain substantially the same
